Experimental data: article PMC6949113, “Preclinical evaluation of AT-527, a novel guanosine nucleotide prodrug with potent, pan-genotypic activity against hepatitis C virus” (PLoS ONE, 2020)

Columns and labels:
Zika = assay: Anti-Zika virus assay (XTT); assay type: cell-based; conditions: Zika in Vero cells
Description: Anti-Zika Virus (Zika). […] Monolayers were approximately 70% confluent for the assay. Zika virus strain MR766 was obtained from ATCC (VR-84) and a stock virus pool was produced in LLCMK2 cells.
(§1) Determination of antiviral activity and cytotoxicity.

HRV = assay: Anti-human rhinovirus assay (XTT); assay type: cell-based; conditions: Human rhinovirus sp.; HRV in H1-HeLa cells
Description: (§2) Anti-Human Rhinovirus (HRV).
as §1

AdV = assay: Anti-adenovirus assay (XTT); assay type: cell-based; conditions: unidentified adenovirus; AdV in HeLa cells
Description: as §1

CoV = assay: Anti-coronavirus assay (XTT); assay type: cell-based; conditions: MRC5; CoV in MRC-5 cells
Description: as §1

Vero cells = assay: XTT cytotoxicity, Vero cells; assay type: cell-based, African green monkey; conditions: Zika assay
H1-HeLa cells = assay: XTT cytotoxicity, H1-HeLa cells; assay type: cell-based; conditions: HRV assay
Description: as §2, §1

HeLa cells = assay: XTT cytotoxicity, HeLa cells; assay type: cell-based; conditions: AdV assay
MRC-5 cells = assay: XTT cytotoxicity, MRC-5 cells; assay type: cell-based; conditions: MRC-5, CoV assay
Description: as §1

With `NC(=O)c1ncn([C@@H]2O[C@H](CO)[C@@H](O)[C@H]2O)n1` [Ribavirin] the EC50 (Zika) was 5.65 µM, the EC50 (HRV) was 17.1 µM and the EC50 (AdV) was 0.76 µM. For the same molecule, the EC50 (CoV) was 3.85 µM, the TC50 (Vero cells) was 38.8 µM and the TC50 (H1-HeLa cells) was 40.6 µM. For the same molecule, the TC50 (HeLa cells) was 11.7 µM and the TC50 (MRC-5 cells) was >100 µM.
